In US20230348564A1, “ANTI-CANCER PROTEINS” (UNICHEM LABORATORIES LTD, priority 2020, published 2023):
Where two headings read alike, the source gives them in different places.

What was measured:
[1] = tested on: neovascularization of Matrigel plug containing FGF-2 (bFGF); test: Matrigel plug assay (in-vivo anti-angiogenesis); set-up: species or system C57BL/6 mice; conditions: G3, 55 mg/Kg, qdx15
Method: Healthy C57BL/6 mice were selected and grouped on the basis of body weight into […] (G1-G4, n=7). Each mouse of group G2-G4 was subcutaneously injected at right flank region with 500 μl of matrigel containing 500 ng of FGF-2 (bFGF). Whereas mice of G1 group were subcutaneously injected at right flank region with 500 μl of matrigel only. In this assay, angiogenesis-inducing compounds such as bFGF was introduced into cold liquid Matrigel which, after subcutaneous injection, solidified and permits penetration by host cells and the formation of new blood vessels (neovascularization).
Required amount of test items were taken and added to an appropriate volume of Tris Buffered Saline (TBS) to achieve the required concentrations. The dose volume given to animal was 10 mL/Kg.
Daily cage-side observations were carried out to detect any clinical signs or mortality and recorded throughout the experiment period.

[2] = tested on: PANC-1 (Pancreas/duct epithelioid carcinoma); test: Xenograft study; format: in vivo, mice; conditions: PANC-1 xenograft, IP
From the text: (§1) The Xenograft models used were HT-29, KB, PA-1, MCF-7, PANC-1, T24 and MDA-MB-231. The basic study design for the Xenograft study was as follows: • 1. Cell maintenance and cell suspension preparation • 2. Aseptic injection of tumor cell suspension in the donor animal • 3. Randomization of animals in respective groups • 4. IP dosing of test items in predetermined doses • 5. IP administration of standard • 6. After completion of dosing period. • 7. The Tumor volume recording weekly twice while body weight and clinical signs daily.

[3] = tested on: HT-29 (Colorectal cancer); test: Xenograft study; format: in vivo, mice; conditions: HT-29 xenograft, IP
From the text: as §1

Astrocytoma (U87MG) = test: cytotoxicity in Brain Tumor Cell lines by MTT assay; conditions: 0.05 μM-50 μM, 72 h
Glioma (C6) = test: as above; format: cell-based, Rat; conditions: 0.05 μM-50 μM, 72 h
Method: (§2) The SEQ ID NO. […] Untreated cells were used as control. […] Cells were incubated for 3 h at 37° C.

Notch-1 = test: biomarker levels in IOMM-Lee by ELISA; format: cell-based, Human; conditions: 0.1 μM
From the text: (§3) Effect of SEQ ID No 2 on the expression of following 7 biomarkers were estimated in Human Meningioma cell line (IOMM-Lee) using multiplex analysis: TNF-alpha, VEGF, VEGFR2, HGF, HGFR/c-MET, PDGF-BB, and Contactin-1. Levels of another marker, Notch-1 were also estimated by ELISA in the same cell line. These 8 biomarkers play very crucial role in the pathogenesis and progression of Brain Tumor. […] Supernatants were collected and the levels of these 8 markers were investigated.

VEGFR2 = test: biomarker levels in IOMM-Lee by multiplex analysis; format: cell-based, Human
From the text: as §3

HGF = test: biomarker levels in IOMM-Lee by multiplex analysis; format: cell-based, Human
From the text: as §3

VEGF = test: biomarker levels in IOMM-Lee by multiplex analysis; format: cell-based, Human; conditions: 0.1 μM
From the text: as §3

PDGF-BB = test: biomarker levels in IOMM-Lee by multiplex analysis; format: cell-based, Human
From the text: as §3

Contactin-1 = test: biomarker levels in IOMM-Lee by multiplex analysis; format: cell-based, Human
From the text: as §3

TNF-α = test: biomarker levels in IOMM-Lee by multiplex analysis; format: cell-based, Human
From the text: as §3

HGFR/c-MET = test: biomarker levels in IOMM-Lee by multiplex analysis; format: cell-based, Human
From the text: as §3

Glioblastoma (LN-18) = test: cytotoxicity in Brain Tumor Cell lines by MTT assay; format: cell-based, Human; conditions: 0.05 μM-50 μM, 72 h
Method: as §2

Neuroblastoma (SH-SY5Y) = test: as above; format: cell-based, Human; conditions: 0.05 μM-50 μM, 72 h
Method: as §2

Meningioma (IOMM-Lee) = test: as above; conditions: 0.05 μM-50 μM, 72 h
[4] = tested on: EA.hy926 (Human endothelial cells); test: endothelial cell proliferation by MTT assay; format: cell-based; conditions: 72 h
Method: The cell line used for the study was EA.hy926 (Human endothelial cells) which was procured from National Centre for Cell Science, Pune (India). The cell line was maintained in DMEM+10% FBS (heat inactivated) at 37° C. with 5% CO2, and 95% humidity. […] Untreated cells with complete medium (10% FBS) served as complete medium control, cells with sera free medium served as SFM control and the cells treated with Paclitaxel served as positive control.
The percentage cytotoxicity corresponding to each treatment was calculated.

[5] = tested on: EA.hy926 (Human endothelial cells); test: Cell migration by scratch assay in endothelial cells; format: cell-based; conditions: Homo sapiens, read-out: Inhibition of migration with respect to untreated; for inhibition at 0.0001 µM: 0.1 nM; for inhibition at 0.001 µM: 1 nM; for inhibition at 0.0025 µM: 2.5 nM; for inhibition at 0.005 µM: 5 nM; for inhibition at 0.01 µM: 10 nM
Method: EA.hy296 cells were counted using hemocytometer and plated in 6-well plates at the density of 0.5×10^6 cells/well. The cells were incubated overnight under growth conditions as described above so as to allow cell recovery and exponential growth. Following overnight incubation, a small linear scratch (representative wound) was created in the confluent monolayer (middle of the well) by gently scraping with sterile 200 μl micropipette tip. Photomicrographs of the scratch were taken at 0 h (Initial time point). Cells were rinsed with serum free DMEM and grouped for treatment in two different serum conditions:
• Baseline control: Cells+DMEM • Positive/Validation control: Baseline control+Positive Control. Test: Baseline control+Test Item
• Baseline control: Cells+DMEM+1% FBS • Positive/Validation control: Baseline control+Positive Control. • Test: Baseline control+Test item
Photomicrographs of the scratch were taken at 24 h-72 h time points. The photomicrographs obtained in the above step were analyzed for quantitative assessment of area of wound closure using ImageJ tool software. Percentage migration with respect to untreated cells at different time points was calculated.

For `CCN(CC)CCNC(=O)c1c(C)[nH]c(/C=C2\C(=O)Nc3ccc(F)cc32)c1C` [Sunitinib, reference compound], the “Hemoglobin Content in the Matrigel Plug Section, Mean” value ([1]; p.o.) was 21.92, the “reduction in hemoglobin content in homogenate of Matrigel plug compared to positive control” value ([1]; p.o.) was 59.2% and the “Histological Observation, Fat cell Infiltration, Mean” value [1] was 0.71. The “Histological Observation, Fibroblast Infiltration, Mean” value [1] was 2.43, the “Histological Observation, MN cell Infiltration, Mean” value [1] was 1.57 and the “Histological Observation, Neovascularization, Mean” value [1] was 1.14.
In the case of `Nc1ccn([C@@H]2O[C@H](CO)[C@@H](O)C2(F)F)c(=O)n1` [Gemcitabine, reference compound], the “Maximum Tumor Growth Inhibition (%)” value [2] is reported as 61.49% and the “Tumor Volume (mm^3) (Mean ± SEM)” value [2] is reported as 503.93 ± 151.27 mm^3.
With `O=c1[nH]cc(F)c(=O)[nH]1` [5-Fluorourasil, reference compound] the “Maximum Tumor Growth Inhibition (%)” value [3] was 62.94% and the “Tumor Volume (mm^3) (Mean ± SEM)” value [3] was 1362 ± 155 mm^3.
For `CO[C@H]1C[C@@H]2CC[C@@H](C)[C@@](O)(O2)C(=O)C(=O)N2CCCC[C@H]2C(=O)O[C@H]([C@H](C)C[C@@H]2CC[C@@H](OCCO)[C@H](OC)C2)CC(=O)[C@H](C)/C=C(\C)[C@@H](O)[C@@H](OC)C(=O)[C@H](C)C[C@H](C)/C=C/C=C/C=C/1C` [Everolimus], the “% of cytotoxicity” value (Astrocytoma (U87MG)) was 43.6%-88.0%, the “% of cytotoxicity” value (Glioma (C6)) was 50.3%-97.2% and the “Percentage inhibition on levels of Notch-1” value (Notch-1) was 75.9%. The “Percentage inhibition on levels of VEGFR2” value (VEGFR2; 0.1 μM) was 27.6%, the “Percentage inhibition on levels of VEGFR2” value (VEGFR2; 5 μM) was 100% and the “Percentage inhibition on levels of HGF” value (HGF; 0.1 μM) was 59.2%. The “Percentage inhibition on levels of HGF” value (HGF; 5 μM) was 80.8%, the “Percentage inhibition on levels of VEGF” value (VEGF) was 45.8% and the “Percentage inhibition on levels of PDGF-BB” value (PDGF-BB; 0.1 μM) was 1.5%. The “Percentage inhibition on levels of PDGF-BB” value (PDGF-BB; 5 μM) was 67.9%, the “Percentage inhibition on levels of Contactin-1” value (Contactin-1; 0.1 μM) was 14.9% and the “Percentage inhibition on levels of Contactin-1” value (Contactin-1; 5 μM) was 31.3%. For the same compound, the “Percentage inhibition on levels of TNF-α” value (TNF-α; 0.1 μM) was 42.3%, the “Percentage inhibition on levels of TNF-α” value (TNF-α; 5 μM) was 100% and the “Percentage inhibition on levels of HGFR/c-MET” value (HGFR/c-MET; 0.1 μM) was 21.2%. The “Percentage inhibition on levels of HGFR/c-MET” value (HGFR/c-MET; 5 μM) was 41%, the “% of cytotoxicity” value (Glioblastoma (LN-18)) was 3.5%-90.7% and the “% of cytotoxicity” value (Neuroblastoma (SH-SY5Y)) was 29.7%-70.1%. For the same compound, the “% of cytotoxicity” value (Meningioma (IOMM-Lee)) was 44.7%-97.4%.
`CC(=O)O[C@H]1C(=O)[C@@]2(C)[C@H]([C@H](OC(=O)c3ccccc3)[C@]3(O)C[C@H](OC(=O)[C@H](O)[C@@H](NC(=O)c4ccccc4)c4ccccc4)C(C)=C1C3(C)C)[C@]1(OC(C)=O)CO[C@@H]1C[C@@H]2O` [Paclitaxel, reference compound] was tested, and the “Mean (MTT absorbance)” value ([4]; 1 nM) was 0.93, the “Mean (MTT absorbance)” value ([4]; 10 nM) was 0.89 and the “Mean (MTT absorbance)” value ([4]; 100 nM) was 0.57. The “Mean (MTT absorbance)” value ([4]; 1000 nM) was 0.45, the inhibition at 0.001 µM ([4]; Homo sapiens, EA.hy 926, 1 nM, read-out: % inhibition of FBS stimulated cell growth) was 42% and the inhibition at 0.01 µM ([4]; Homo sapiens, EA.hy 926, 10 nM, read-out: % inhibition of FBS stimulated cell growth) was 44.7%. The inhibition at 0.1 µM ([4]; Homo sapiens, EA.hy 926, 100 nM, read-out: % inhibition of FBS stimulated cell growth) was 64.5%, the inhibition at 1 µM ([4]; Homo sapiens, EA.hy 926, 1000 nM, read-out: % inhibition of FBS stimulated cell growth) was 71.7% and the inhibition at 0.0001 µM ([5]; EA.hy 926, 24 h, 24 h, 1% FBS) was -1.1%. It also gave an inhibition at 0.0001 µM ([5]; EA.hy 926, 24 h, 24 h, SFM) of 26.5%, an inhibition at 0.001 µM ([5]; EA.hy 926, 24 h, 24 h, 1% FBS) of 7.8% and an inhibition at 0.001 µM ([5]; EA.hy 926, 24 h, 24 h, SFM) of 28.5%. The inhibition at 0.0025 µM ([5]; EA.hy 926, 24 h, 24 h, 1% FBS) was 25.9%, the inhibition at 0.0025 µM ([5]; EA.hy 926, 24 h, 24 h, SFM) was 51.4% and the inhibition at 0.005 µM ([5]; EA.hy 926, 24 h, 24 h, 1% FBS) was 25%. It also gave an inhibition at 0.005 µM ([5]; EA.hy 926, 24 h, 24 h, SFM) of 43.7%, an inhibition at 0.01 µM ([5]; EA.hy 926, 24 h, 24 h, 1% FBS) of 44.4% and an inhibition at 0.01 µM ([5]; EA.hy 926, 24 h, 24 h, SFM) of 58.9%. The inhibition at 0.0001 µM ([5]; EA.hy 926, 48 h, 48 h, 1% FBS) was -0.2%, the inhibition at 0.0001 µM ([5]; EA.hy 926, 48 h, 48 h, SFM) was 21.1% and the inhibition at 0.001 µM ([5]; EA.hy 926, 48 h, 48 h, 1% FBS) was 2.1%. For the same compound, the inhibition at 0.001 µM ([5]; EA.hy 926, 48 h, 48 h, SFM) was 36.8%, the inhibition at 0.0025 µM ([5]; EA.hy 926, 48 h, 48 h, 1% FBS) was 18.3% and the inhibition at 0.0025 µM ([5]; EA.hy 926, 48 h, 48 h, SFM) was 51.6%. For the same compound, the inhibition at 0.005 µM ([5]; EA.hy 926, 48 h, 48 h, 1% FBS) was 10.6%, the inhibition at 0.005 µM ([5]; EA.hy 926, 48 h, 48 h, SFM) was 45.2% and the inhibition at 0.01 µM ([5]; EA.hy 926, 48 h, 48 h, 1% FBS) was 37.2%. It also gave an inhibition at 0.01 µM ([5]; EA.hy 926, 48 h, 48 h, SFM) of 60.2%, an inhibition at 0.0001 µM ([5]; EA.hy 926, 72 h, 72 h, SFM) of 7.8% and an inhibition at 0.001 µM ([5]; EA.hy 926, 72 h, 72 h, SFM) of 32.7%. For the same compound, the inhibition at 0.0025 µM ([5]; EA.hy 926, 72 h, 72 h, SFM) was 42.8%, the inhibition at 0.005 µM ([5]; EA.hy 926, 72 h, 72 h, SFM) was 47.3% and the inhibition at 0.01 µM ([5]; EA.hy 926, 72 h, 72 h, SFM) was 56.3%.
